Reference: patent US20230085307A1, “PYRIDAZINONE COMPOUND AND HERBICIDE” (NISSAN CHEMICAL CORPORATION, priority 2019, published 2023)

What was measured:
persian speedwell = assay: Test Example 5: herbicidal effect by foliage application, plastic box (Table 20, symbol R); assay type: in vivo, Persian speedwell (Veronica persica); conditions: foliage application, 320 g/ha, three weeks after application
Method in brief: (§1)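 Sow seeds spot-wise in sterilized diluvial soil; cover with ~1.5 cm soil. Grow 14 days in greenhouse, 25° C. to 30° C. Spray foliage with emulsion diluted to predetermined amount. Rate effect after 3 weeks.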

lambsquarters = assay: Test Example 5: herbicidal effect by foliage application, plastic box (Table 20, symbol O); assay type: in vivo, lambsquarters (Chenopodium album); conditions: foliage application, 320 g/ha, three weeks after application
Method in brief: as §1

barnyard grass [1] = assay: Test Example 5: herbicidal effect by foliage application, plastic box (Table 20, symbol H); assay type: in vivo, barnyard grass (Echinochloa crus-galli); conditions: foliage application, 320 g/ha, three weeks after application
Method in brief: as §1

wild oat = assay: Test Example 5: herbicidal effect by foliage application, plastic box (Table 20, symbol I); assay type: in vivo, wild oat (Avena fatua); conditions: foliage application, 320 g/ha, three weeks after application
Method in brief: as §1

Chinese sprangletop = assay: Test Example 3: herbicidal effect by foliage application, Wagner pot (Table 18, symbol D); assay type: in vivo, chinese sprangletop (Leptochloa chinensis); conditions: amount of applied herbicide 320 g/ha
Method in brief: (§2)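 Plants were sown in alluvial soil held under 0.1–0.5 cm standing water and grown 14 days in a greenhouse at 25–30 °C. An emulsifiable formulation, water-diluted to the set dose, was then sprayed onto the foliage, and effects were scored three weeks later using previously defined criteria.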

southern crabgrass = assay: Test Example 5: herbicidal effect by foliage application, plastic box (Table 20, symbol F); assay type: in vivo, southern crabgrass (Digitaria ciliaris); conditions: foliage application, 320 g/ha, three weeks after application
Method in brief: as §1

windgrass = assay: Test Example 5: herbicidal effect by foliage application, plastic box (Table 20, symbol L); assay type: in vivo, windgrass (Apera spica-venti); conditions: foliage application, 320 g/ha, three weeks after application
Method in brief: as §1

rice flat sedge = assay: Test Example 3: herbicidal effect by foliage application, Wagner pot (Table 18, symbol E); assay type: in vivo, rice flat sedge (Cyperus iria); conditions: amount of applied herbicide 320 g/ha
Method in brief: as §2

barnyard grass [2] = assay: Test Example 3: herbicidal effect by foliage application, Wagner pot (Table 18, symbol H); assay type: in vivo, barnyard grass (Echinochloa crus-galli); conditions: amount of applied herbicide 320 g/ha
Method in brief: as §2

chickweed = assay: Test Example 5: herbicidal effect by foliage application, plastic box (Table 20, symbol P); assay type: in vivo, common chickweed (Stellaria media); conditions: foliage application, 320 g/ha, three weeks after application
Method in brief: as §1

blackgrass = assay: Test Example 5: herbicidal effect by foliage application, plastic box (Table 20, symbol J); assay type: in vivo, blackgrass (Alopecurus myosuroides); conditions: foliage application, 320 g/ha, three weeks after application
Method in brief: as §1

redroot pigweed = assay: Test Example 5: herbicidal effect by foliage application, plastic box (Table 20, symbol N); assay type: in vivo, redroot pigweed (Amaranthus retroflexus); conditions: foliage application, 320 g/ha, three weeks after application
Method in brief: as §1

velvetleaf = assay: Test Example 5: herbicidal effect by foliage application, plastic box (Table 20, symbol M); assay type: in vivo, velvetleaf (Abutilon theophrasti); conditions: foliage application, 320 g/ha, three weeks after application
Method in brief: as §1

Italian ryegrass = assay: Test Example 5: herbicidal effect by foliage application, plastic box (Table 20, symbol K); assay type: in vivo, Italian ryegrass (Lolium multiflorum); conditions: foliage application, 320 g/ha, three weeks after application
Method in brief: as §1

green foxtail = assay: Test Example 5: herbicidal effect by foliage application, plastic box (Table 20, symbol G); assay type: in vivo, green foxtail (Setaria viridis); conditions: foliage application, 320 g/ha, three weeks after application
Method in brief: as §1

Row | Compound | R: persian speedwell, herbicidal effect grade (persian speedwell) | O: lambsquarters, herbicidal effect grade (lambsquarters) | H: barnyard grass, herbicidal effect grade (barnyard grass [1]) | I: wild oat, herbicidal effect grade (wild oat) | herbicidal effect on D: Chinese sprangletop (Chinese sprangletop) | F: southern crabgrass, herbicidal effect grade (southern crabgrass) | L: windgrass, herbicidal effect grade (windgrass) | herbicidal effect on E: rice flat sedge (rice flat sedge) | herbicidal effect on H: barnyard grass (barnyard grass [2]) | P: chickweed, herbicidal effect grade (chickweed) | J: blackgrass, herbicidal effect grade (blackgrass) | N: redroot pigweed, herbicidal effect grade (redroot pigweed) | M: velvetleaf, herbicidal effect grade (velvetleaf) | K: Italian ryegrass, herbicidal effect grade (Italian ryegrass) | G: green foxtail, herbicidal effect grade (green foxtail)
1 | Cc1nn(Cc2ccccc2)c(=O)c(-c2c(-c3ccc(C(F)(F)F)cc3)sc3ccc(F)cc23)c1O [2-436] | 0 (Herbicidal rate of 5% or less (almost no effect)) | 0 (Herbicidal rate of 5% or less (almost no effect)) | 0 (Herbicidal rate of 5% or less (almost no effect)) | 0 (Herbicidal rate of 5% or less (almost no effect)) | 0 (Herbicidal rate of 5% or less (almost no effect)) | 0 (Herbicidal rate of 5% or less (almost no effect)) | 0 (Herbicidal rate of 5% or less (almost no effect)) | 2 (Herbicidal rate of 20% or more and less than 40%) | 3 (Herbicidal rate of 40% or more and less than 70%) | 0 (Herbicidal rate of 5% or less (almost no effect)) | 0 (Herbicidal rate of 5% or less (almost no effect)) | 3 (Herbicidal rate of 40% or more and less than 70%) | 0 (Herbicidal rate of 5% or less (almost no effect)) | 0 (Herbicidal rate of 5% or less (almost no effect)) | 0 (Herbicidal rate of 5% or less (almost no effect))
2 | COCCOCOc1c(C)nn(C)c(=O)c1-c1c(-c2ccc(Oc3ncc(C(F)(F)F)cc3Cl)cc2)sc2ccc(F)cc12 [2-468] | 3 (Herbicidal rate of 40% or more and less than 70%) | 2 (Herbicidal rate of 20% or more and less than 40%) | 5 (Herbicidal rate of 90% or more (almost completely withered)) | 0 (Herbicidal rate of 5% or less (almost no effect)) | 2 (Herbicidal rate of 20% or more and less than 40%) | 0 (Herbicidal rate of 5% or less (almost no effect)) | 0 (Herbicidal rate of 5% or less (almost no effect)) | 2 (Herbicidal rate of 20% or more and less than 40%) | 3 (Herbicidal rate of 40% or more and less than 70%) | 0 (Herbicidal rate of 5% or less (almost no effect)) | 0 (Herbicidal rate of 5% or less (almost no effect)) | 1 (Herbicidal rate of 5% or more and less than 20%) | 0 (Herbicidal rate of 5% or less (almost no effect)) | 0 (Herbicidal rate of 5% or less (almost no effect)) | 0 (Herbicidal rate of 5% or less (almost no effect))
3 | Cc1nn(C)c(=O)c(-c2c(-c3ccc(Cl)cc3)sc3cc(F)ccc23)c1O [3-015] | 2 (Herbicidal rate of 20% or more and less than 40%) | 0 (Herbicidal rate of 5% or less (almost no effect)) | 0 (Herbicidal rate of 5% or less (almost no effect)) | 0 (Herbicidal rate of 5% or less (almost no effect)) | 3 (Herbicidal rate of 40% or more and less than 70%) | 0 (Herbicidal rate of 5% or less (almost no effect)) | 5 (Herbicidal rate of 90% or more (almost completely withered)) | 3 (Herbicidal rate of 40% or more and less than 70%) | 3 (Herbicidal rate of 40% or more and less than 70%) | 4 (Herbicidal rate of 70% or more and less than 90%) | 1 (Herbicidal rate of 5% or more and less than 20%) | 2 (Herbicidal rate of 20% or more and less than 40%) | 0 (Herbicidal rate of 5% or less (almost no effect)) | 0 (Herbicidal rate of 5% or less (almost no effect)) | 0 (Herbicidal rate of 5% or less (almost no effect))
